# Results reported in publication PMC9591056, “Inhibitors of ApiAP2 protein DNA binding exhibit multistage activity against Plasmodium parasites” (PLOS Pathogens, 2022).
# B1: AtERF1 gel shift probe (dsDNA)
# DNA 1: TTTAACTTTAATTATGAATATGAGGCGGCGGGTTCGTGATCAAC
# DNA 2: GTTGATCACGAACCCGCCGCCTCATATTCATAATTAAAGTTAAA
# B2: AP2-EXP gel shift probe (dsDNA)
# DNA 1: ACTACACACCTAACTATGCATGCATCAATATAGTGGATTA
# DNA 2: TAATCCACTATATTGATGCATGCATAGTTAGGTGTGTAGT
# Assays:
# PfSIP2 D1 = target: T1, PfSIP2 D1 (Plasmodium falciparum, UniProt C6KSN9); experiment: competitive EMSA, inhibition of DNA binding; conditions: 300 uM compound; cognate biotinylated dsDNA probe; 10 mM Tris pH 7.5, 50 mM KCl, 6 mM MgCl2
# T1 construct: gene PF3D7_0604100
# T1 sequence (C6KSN9 1729-1788 limits assumed): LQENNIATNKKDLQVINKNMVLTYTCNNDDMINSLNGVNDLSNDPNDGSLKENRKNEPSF
# AP2-I D3 = target: T2, AP2-I D3 (Plasmodium falciparum, UniProt Q8IJW6); experiment: competitive EMSA, inhibition of DNA binding; conditions: 300 uM compound; cognate biotinylated dsDNA probe; 10 mM Tris pH 7.5, 50 mM KCl, 6 mM MgCl2
# T2 construct: gene PF3D7_1007700
# T2 sequence (Q8IJW6 entry or part of it): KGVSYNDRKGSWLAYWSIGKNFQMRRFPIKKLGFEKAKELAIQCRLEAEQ
# PbAP2-Sp = target: T3, PbAP2-Sp (Plasmodium berghei, UniProt A0A509ASL1); experiment: competitive EMSA, inhibition of DNA binding; conditions: 300 uM compound; cognate biotinylated dsDNA probe; 10 mM Tris pH 7.5, 50 mM KCl, 6 mM MgCl2
# T3 construct: gene PBANKA_1329800
# T3 sequence (A0A509ASL1 175-230 limits assumed): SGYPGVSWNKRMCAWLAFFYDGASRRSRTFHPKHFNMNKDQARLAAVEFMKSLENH
# AP2-HS D1 = target: T4, AP2-HS D1 (Plasmodium falciparum, UniProt C0H5G5); experiment: competitive EMSA, inhibition of DNA binding; conditions: 300 uM compound; cognate biotinylated dsDNA probe; 10 mM Tris pH 7.5, 50 mM KCl, 6 mM MgCl2
# T4 construct: gene PF3D7_1342900
# T4 sequence (C0H5G5 2363-2413 limits assumed): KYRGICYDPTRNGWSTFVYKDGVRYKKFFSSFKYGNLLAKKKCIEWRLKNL
# AP2-EXP AP2 domain [1] = target: T5, AP2-EXP AP2 domain (Plasmodium falciparum, UniProt Q8IKH2); experiment: competitive EMSA, inhibition of DNA binding; conditions: 300 uM compound, biotinylated cognate dsDNA probe, 10 mM Tris pH 7.5, 50 mM KCl, 6 mM MgCl2
# T5 construct: gene PF3D7_1466400
# T5 sequence (Q8IKH2 63-123): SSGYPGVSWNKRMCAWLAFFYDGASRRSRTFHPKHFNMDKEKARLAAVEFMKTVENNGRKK
# AtERF1 AP2/ERF domain = AtERF1 AP2/ERF domain (Arabidopsis thaliana, UniProt O80337 147-205); experiment: EMSA; 300 uM Compound A; EMSA: 10 mM Tris pH 7.5, 50 mM KCl, 1 mM DTT, 6 mM MgCl2, 60 ng/uL poly dIdC, 65 ng BSA; 125 ng AP2-EXP or PbAP2-Sp, 40-150 fmol probe; 15 min protein + compound, then 5 min with DNA; temperature not stated; conditions: protein: recombinant; (pGex4t-1); label: 5' biotin on forward strand; blunt
# AtERF1 AP2/ERF domain, sequence (O80337 147-205): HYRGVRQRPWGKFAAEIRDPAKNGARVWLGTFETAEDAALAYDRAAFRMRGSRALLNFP
# AP2-EXP AP2 domain [2] = target: AP2-EXP AP2 domain (Plasmodium falciparum, UniProt Q8IKH2 64-118); experiment: EMSA; 300 uM Compound D; EMSA: 10 mM Tris pH 7.5, 50 mM KCl, 1 mM DTT, 6 mM MgCl2, 60 ng/uL poly dIdC, 65 ng BSA; 125 ng AP2-EXP or PbAP2-Sp, 40-150 fmol probe; 15 min protein + compound, then 5 min with DNA; temperature not stated; conditions: protein: recombinant; (expressed as in cited work); label: 5' biotin on forward strand; blunt
molecule,measurement,setting,value
"CCc1ccc(-c2nc3cc(NC(=O)c4ccc([N+](=O)[O-])o4)ccc3o2)cc1 [B, Compound B]","competitive EMSA, inhibition of DNA binding",PfSIP2 D1,"Compounds B, C and I prevent DNA binding by PfSIP2 D1 (S5C Fig)"
same,"competitive EMSA, inhibition of DNA binding",AP2-I D3,"Compounds A, B, C, and I can prevent DNA binding by AP2-I D3"
same,"competitive EMSA, inhibition of DNA binding",PbAP2-Sp,Compounds B and C block PbAP2-Sp DNA binding in vitro
same,"competitive EMSA, inhibition of DNA binding",AP2-HS D1,Compounds B and I prevent DNA binding by AP2-HS D1 (S5B Fig)
"Cc1cccc(-c2nc3cc(NC(=O)c4ccc([N+](=O)[O-])o4)ccc3o2)c1 [B-4, Compound B-4]","competitive EMSA, inhibition of DNA binding",AP2-I D3,prevent DNA binding by AP2-EXP (Fig 2A) and AP2-I D3 (S7A Fig)
same,"competitive EMSA, inhibition of DNA binding","AP2-EXP AP2 domain [1]; also titrated at 25, 50 and 150 uM",Compounds B-1 and B-4 prevent DNA binding by AP2-EXP (Fig 2A)
"Cc1ccc(-c2nc3cc(NC(=O)c4ccc([N+](=O)[O-])o4)ccc3o2)cc1Cl [B-1, Compound B-1]","competitive EMSA, inhibition of DNA binding",AP2-I D3,prevent DNA binding by AP2-EXP (Fig 2A) and AP2-I D3 (S7A Fig)
same,"competitive EMSA, inhibition of DNA binding",AP2-EXP AP2 domain [1],Compounds B-1 and B-4 prevent DNA binding by AP2-EXP (Fig 2A)
B1,binding result,AtERF1 AP2/ERF domain,binds
B2,binding result,AP2-EXP AP2 domain [2],binds
